Experiment: solubility of the compound in common solvents
Assay type: physicochemical
Conditions: 25-30° C.; for solubility in DMF: N,N-dimethylformamide; for solubility in i-PrOAc: isopropyl acetate; for solubility in MTBE: methyl tert-butyl ether
Description: The solubility of the compound of the present invention in common solvents was investigated (25-30° C.), and the results are shown in Table 1. It can be seen from Table 1 that the compound of the present invention has good solubility in all of heptane, isopropyl acetate (i-PrOAc), methyl tert-butyl ether (MTBE) and N,N-dimethylformamide (DMF), and particularly, the solubility in N,N-dimethylformamide is much higher than Comparative Examples.

| Compound | solubility in DMSO [%] | solubility in MeOH [%] | solubility in DMF [%] | solubility in Heptane [%] | solubility in i-PrOAc [%] | solubility in MTBE [%] |
| --- | --- | --- | --- | --- | --- | --- |
| 4,4′-di(2-(2-(3,4,5-tris(2,3-dihydrophytoxy)-benzamido)-ethoxy)-ethoxy)-benzhydrylamine [DPA-004] | <1 | <1 | >1 | >50 | >100 | >100 |
| 4,4′-di((5-(3,4,5-tris(isononyloxy)-benzamido)-2-one-3-aza-hexyl)oxy)-benzhydrylamine [DPA-009] | <1 | <1 | >30 | >10 | >25 | >30 |
| 4-(2-(2-(3,4,5-tri(octa/decy/dodecyloxy)-benzamido)-ethoxy)-ethoxy)-benzhydrylamine [DPA-024] | <1 | <1 | >30 | >50 | >100 | >100 |
| 4-(2-(2-(3,4,5-tris(isomeric decyloxy)-benzamido)-ethoxy)-ethoxy)-benzhydrylamine [DPA-006] | <1 | <1 | >100 | >100 | >100 | >100 |
| CC(C)CCCCCOc1cc(C(=O)NCCOCCOc2ccc(C(N)c3ccc(OCCOCCNC(=O)c4cc(OCCCCCC(C)C)c(OCCCCCC(C)C)c(OCCCCCC(C)C)c4)cc3)cc2)cc(OCCCCCC(C)C)c1OCCCCCC(C)C [DPA-001, 4,4′-di(2-(2-(3,4,5-tris(isooctyloxy)-benzamido)-ethoxy)-ethoxy) benzhydrylamine] | <1 | <1 | >20 | >25 | >30 | >30 |
| CCCCCCCCCCCCCOc1cc(C(=O)NCCOCCOc2ccc(C(N)c3ccc(OCCOCCNC(=O)c4cc(OCCCCCCCCCCCCC)c(OCCCCCCCCCCCCC)c(OCCCCCCCCCCCCC)c4)cc3)cc2)cc(OCCCCCCCCCCCCC)c1OCCCCCCCCCCCCC [DPA-003, 4,4′-di(2-(2-(3,4,5-tris(isomeric tridecyloxy)-benzamido)-ethoxy)-ethoxy)-benzhydrylamine] | <1 | <1 | >20 | >50 | >100 | >100 |
| CCCCCCCCCCCCCOc1cc(C(=O)NCCOCCOc2ccc(C(N)c3ccccc3)cc2)cc(OCCCCCCCCCCCCC)c1OCCCCCCCCCCCCC (stereo not drawn) [DPA-007, 4-(2-(2-(3,4,5-tris(isomeric tridecyloxy)-benzamido)-ethoxy)-ethoxy)-benzhydrylamine] | <1 | <1 | >100 | >100 | >100 | >100 |
| CC(C)CCCCCCOc1cc(C(=O)NCCOCCOc2ccc(C(N)c3ccc(Cl)cc3)cc2)cc(OCCCCCCC(C)C)c1OCCCCCCC(C)C (stereo not drawn) [DPA-011, 4-(2-(2-(3,4,5-tris(isononyloxy)-benzamido)-ethoxy)-ethoxy)-4′-chloro-benzhydrylamine] | <1 | <1 | >150 | >100 | >100 | >50 |
| CCCCCCCCCCCCCOc1ccc(CC(=O)NCCOCCOc2ccc(C(N)c3ccccc3)cc2)cc1OCCCCCCCCCCCCC (stereo not drawn) [DPA-013, 4-(2-(2-(3,4-di(isomeric tridecyloxy)-phenylacetamido)-ethoxy)-ethoxy)-benzhydrylamine] | <1 | <1 | >50 | >50 | >70 | >50 |
| CC(C)CCCCCCCCCCCCCCC(=O)NCCCCC(NC(=O)CCCCCCCCCCCCCCC(C)C)C(=O)NCCOCCOc1ccc(C(N)c2ccccc2)cc1 (stereo not drawn) [DPA-014, 4-(2-(2-(2,6-diisostearamido-hexanamido)-ethoxy)-ethoxy)-benzhydrylamine] | <10 | <10 | >40 | >30 | >50 | >50 |
| CCCCCCCCCCCCCOc1cc(C(=O)NCCCC(=O)NCCOCCOc2ccc(C(N)c3ccccc3)cc2)cc(OCCCCCCCCCCCCC)c1OCCCCCCCCCCCCC (stereo not drawn) [DPA-015, 4-(2-(2-(4-(3,4,5-tri(isomeric tridecyloxy)-benzamido)-butyrylamido)-ethoxy)-ethoxy)-benzhydrylamine] | <1 | <1 | >100 | >50 | >100 | >100 |
| CCCCCCCCCCCCCOc1cc(C(=O)NCCCCC(NC(=O)c2cc(OCCCCCCCCCCCCC)c(OCCCCCCCCCCCCC)c(OCCCCCCCCCCCCC)c2)C(=O)NCCOCCOc2ccc(C(N)c3ccccc3)cc2)cc(OCCCCCCCCCCCCC)c1OCCCCCCCCCCCCC (stereo not drawn) [DPA-017] | <5 | <5 | >100 | >100 | >100 | >100 |
| CC(CCC(C(=O)NCCOCCOc1ccc(C(N)c2ccc(OCCOCCNC(=O)C(CCC(C)CC(C)(C)C)C(C)CC(C)(C)C)cc2)cc1)C(C)CC(C)(C)C)CC(C)(C)C (stereo not drawn) [DPA-018, 4,4′-di(2-(2-(isostearamido)-ethoxy)-ethoxy)-benzhydrylamine] | <5 | <10 | >100 | >5 | >100 | >100 |
| CC(CCC(C(=O)N(CCOCCOc1ccc(C(N)c2ccccc2)cc1)Cc1ccccc1)C(C)CC(C)(C)C)CC(C)(C)C (stereo not drawn) [DPA-019] | <5 | <10 | >50 | >50 | >100 | >100 |
| CC(CCC(C(=O)N(CCOCCOc1ccc(C(N)c2ccc(OCCOCCN(Cc3ccccc3)C(=O)C(CCC(C)CC(C)(C)C)C(C)CC(C)(C)C)cc2)cc1)Cc1ccccc1)C(C)CC(C)(C)C)CC(C)(C)C (stereo not drawn) [DPA-020] | <5 | <5 | >100 | >100 | >100 | >100 |
| CCCCCCCCCCCCOc1cc(C(=O)NCCOCCOc2ccc(C(N)c3ccccc3)cc2)cc(OCCCCCCCCCCCC)c1OCCCCCCCCCCCC (stereo not drawn) [DPA-023, 4-(2-(2-(3,4,5-tri(n-dodecyloxy)-benzamido)-ethoxy)-ethoxy)-benzhydrylamine] | <5 | <5 | >30 | >50 | >50 | >50 |
| CCCCCCCCCCCCCOc1cc(C(=O)N(C)CCOc2ccc(C(N)c3ccccc3)cc2)cc(OCCCCCCCCCCCCC)c1OCCCCCCCCCCCCC (stereo not drawn) [DPA-026, 4-(2-(N′-methy-3,4,5-tri(isomeric tridecyloxy)-benzamido)-ethoxy)-benzhydrylamine] | <1 | <1 | >100 | >50 | >100 | >100 |
| CCCCCCCCCCCCCOc1ccc(CN(CCOCCOc2ccc(C(N)c3ccccc3)cc2)C(C)=O)cc1OCCCCCCCCCCCCC (stereo not drawn) [DPA-027] | <1 | <1 | >75 | >50 | >75 | >75 |
| CCCCCCCCCCCCCOc1ccc(CN(CCOCCOc2ccc(C(N)c3ccccc3)cc2)C(=O)CC(C)CC(C)(C)C)cc1OCCCCCCCCCCCCC (stereo not drawn) [DPA-028] | <1 | <1 | >100 | >100 | >100 | >100 |

Source: patent US12172946B2, “Compound containing diphenylmethane structure and use thereof” (GUANGZHOU TROJAN PHARMATEC LTD., priority 2019, dated 2024)
